Counter-ions that a name gives are not always drawn. Like-named read-outs stand apart in the source and are kept apart here.
How the values were obtained:
[1] = molecular target: Kv11.1 (hERG) ion channel (Homo sapiens (Human), UniProt Q12809); type: cell-based; details: ratio of hERG Ki (patch clamp) to pERK IC50 in KYSE520
Description: Inhibition of the ion channel hErg (or Kv11.1) current causes QT interval prolongation resulting in potentially fatal ventricular tachyarrhythmia called Torsade de Pointes.
hERG ion channel activity was assessed using a patch clamp technique in stable Kv11.1 (hERG) transfected human embryonic kidney cell line (HEK293). Whole cell recordings were carried out with an automated patch clamp device Patchliner™ from Nanion Technologies, Munich following manufacturer recommendation. Different concentrations of the test compound or reference, quinidine, were applied to whole cells suspension and current was measured using a pulse pattern with fixed amplitudes.

[2] = tested on: pERK level in KYSE520 cells; assay: p-Erk cellular assay in KYSE520 (Mesoscale); type: cell-based; details: 2 h incubation, read-out: pERK1/2 in KYSE520 IC50
Description: (§1) p-Erk Cellular Assay in MDA-MB-468 and KYSE520:
(§2) The effect of SHP2 inhibitors on pERK level was assessed using phospho-specific antibody using Mesoscale quantification platform. For measuring change in pERK levels using mesoscale, 30,000 cells of MDA MB468 and KYSE520 cells were plated in 96-well tissue culture treated plate in 175 ul volume of media. After an overnight incubation at 37° C., various SHP2 inhibitors were added in different concentration to each well maintaining duplicate wells across plates and incubated with compounds for 2 h at 37° C. followed by a wash with ice cold PBS buffer. The cells were then lysed in lysis buffer and processed and analyzed for p-ERK/ERK as per manufacturer's instructions (Mesoscale discovery, cat No. K15107D-3).

[3] = molecular target: Full length SHP2 protein (Recombinant Human SHP-2) (Homo sapiens, UniProt Q06124); assay: SHP2 biochemical assay (DiFMUP substrate, activating peptide IRSI_2pY); details: DiFMUP substrate, activating peptide IRSI_2pY, 60 min at RT; read-out: SHP-2 Biochemical assay IC50
Chain of Full length SHP2 protein (Recombinant Human SHP-2) (Q06124 2-593 limits assumed): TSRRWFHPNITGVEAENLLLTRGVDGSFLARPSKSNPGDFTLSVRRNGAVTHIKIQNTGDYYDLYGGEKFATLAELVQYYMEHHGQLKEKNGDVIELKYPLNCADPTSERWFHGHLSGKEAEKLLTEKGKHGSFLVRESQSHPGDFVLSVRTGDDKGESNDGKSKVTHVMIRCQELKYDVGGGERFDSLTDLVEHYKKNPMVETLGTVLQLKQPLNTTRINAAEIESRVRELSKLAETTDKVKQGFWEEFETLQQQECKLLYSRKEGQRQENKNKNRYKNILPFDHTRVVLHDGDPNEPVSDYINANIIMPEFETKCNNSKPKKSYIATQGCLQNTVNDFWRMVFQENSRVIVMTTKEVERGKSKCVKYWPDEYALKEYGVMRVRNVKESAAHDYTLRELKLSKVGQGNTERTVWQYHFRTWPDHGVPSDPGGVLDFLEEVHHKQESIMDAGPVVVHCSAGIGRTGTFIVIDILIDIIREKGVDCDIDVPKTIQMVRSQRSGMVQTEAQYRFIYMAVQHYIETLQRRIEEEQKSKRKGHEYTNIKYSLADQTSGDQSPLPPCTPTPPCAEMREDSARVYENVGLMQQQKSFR
Description: The inhibition of SHP2 by compounds of the invention was monitored using the surrogate substrate DiFMUP after protein activation by a peptide bearing two appropriately spaced phosphotyrosine. […] The generation of the DiFMU product by activated SHP2 was monitored through Fluorescence measurement with a PerkinElmer Envision reader.
The inhibitor dose response curves were analyzed with Genedata Screener.

[4] = Pharmacokinetics in female CD1 mice (oral / intravenous); type: in vivo; details: mouse PK; for clearance / Vd: female, CD1, plasma, intravenous; for Vd: read-out: Vd ss
Description: Female CD1 mice (N=3) received a single oral (gavage) or a single intravenous (bolus) injection of compound. […] Consecutive blood samples were taken sub-lingually under isofluorane inhalation from animals after 0.083 (IV), 0.25, 0.5, 1, 2, 4, 6 and 24 h and were further processed to obtain plasma. Samples were protein precipitated and analyzed by LC/MS/MS.

[5] = tested on: pERK level in MDA-MB-468 cells; assay: p-Erk cellular assay in MDA-MB-468 (Mesoscale); type: cell-based; details: 2 h incubation, read-out: pERK1/2 in MDA-MB-468 IC50
Description: as §1, §2

Chain of Kv11.1 (hERG) ion channel (Q12809 whole entry): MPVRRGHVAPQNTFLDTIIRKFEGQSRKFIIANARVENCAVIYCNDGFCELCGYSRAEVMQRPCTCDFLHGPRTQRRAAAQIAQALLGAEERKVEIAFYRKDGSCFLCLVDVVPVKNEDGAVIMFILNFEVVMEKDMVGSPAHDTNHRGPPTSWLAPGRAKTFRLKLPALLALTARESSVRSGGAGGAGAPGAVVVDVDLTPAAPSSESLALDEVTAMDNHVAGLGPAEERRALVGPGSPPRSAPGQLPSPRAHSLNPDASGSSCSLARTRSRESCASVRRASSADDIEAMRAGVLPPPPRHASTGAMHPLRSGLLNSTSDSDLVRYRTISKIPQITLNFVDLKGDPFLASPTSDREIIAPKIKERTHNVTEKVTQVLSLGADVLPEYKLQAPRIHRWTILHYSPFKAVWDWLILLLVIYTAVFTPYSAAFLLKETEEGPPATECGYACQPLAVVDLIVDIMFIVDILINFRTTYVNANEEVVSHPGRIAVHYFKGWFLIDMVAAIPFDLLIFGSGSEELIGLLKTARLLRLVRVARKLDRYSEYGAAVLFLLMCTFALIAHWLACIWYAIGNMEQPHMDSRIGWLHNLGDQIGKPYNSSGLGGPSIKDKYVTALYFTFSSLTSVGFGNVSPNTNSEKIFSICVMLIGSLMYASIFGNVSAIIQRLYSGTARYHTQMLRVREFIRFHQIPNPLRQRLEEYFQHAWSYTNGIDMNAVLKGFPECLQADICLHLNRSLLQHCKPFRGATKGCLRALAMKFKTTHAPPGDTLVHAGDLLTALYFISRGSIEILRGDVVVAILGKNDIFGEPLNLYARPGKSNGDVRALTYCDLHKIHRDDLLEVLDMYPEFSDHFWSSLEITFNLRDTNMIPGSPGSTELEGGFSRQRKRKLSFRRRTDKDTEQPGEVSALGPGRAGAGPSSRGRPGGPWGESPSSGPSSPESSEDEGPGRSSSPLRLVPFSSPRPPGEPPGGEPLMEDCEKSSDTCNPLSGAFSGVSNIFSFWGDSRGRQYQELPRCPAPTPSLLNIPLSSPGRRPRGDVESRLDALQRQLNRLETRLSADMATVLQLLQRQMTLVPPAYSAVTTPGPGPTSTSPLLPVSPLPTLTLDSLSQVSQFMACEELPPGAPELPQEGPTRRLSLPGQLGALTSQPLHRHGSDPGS

Structure (SMILES)	IC50 ([2]; Homo sapiens, KYSE-520, 2 h)	IC50 [3]	IC50 ([5]; Homo sapiens, MDA-MB-468, 2 h)	further results
Cc1nc(N2CCC3(CC2)Cc2ccccc2[C@H]3N)nc(C(N)=O)c1-c1cccc(Cl)c1Cl (atropisomer, axis not shown; (M)) [Compound 119, (M)-2-[(1S)-1-amino-1,3-dihydrospiro[indene-2,4′-piperidin]-1′-yl]-5-(2,3-dichlorophenyl)-6-methylpyrimidine-4-carboxamide]				Split between hErg and cell activity Ki(patch Clamp)/IC50 (KYSE) [1]: 97
Cc1nc(N2CCC3(CC2)CO[C@@H](C)[C@H]3N)nc(C(N)=O)c1-c1cccc(Cl)c1Cl (single isomer, unassigned) [Compound 95]	486 nM	22 nM	497 nM	clearance [4]: 12.8 mL/min/kg; Vd [4]: 3.99 L/kg; Clearance as compared to SHP-099 (in words) [4]: lower clearance; Exposure as compared to SHP-099 (in words) [4]: higher exposure
Cc1nc(NC2CCCC(N)C2)nc(C(N)=O)c1-c1cccc(Cl)c1Cl (centres unmarked) [Compound 28, 2-(3-Amino-cyclohexyl-amino)-5-(2,3-dichloro-phenyl)-6-methyl-pyrimidine-4-carboxylic acid amide]	11500 nM	360 nM	1630 nM	
NC(=O)c1nc(N2CCC(N)(CO)CC2)nc(N)c1-c1cccc(Cl)c1Cl [Compound 29, 6-amino-2-[4-amino-4-(hydroxymethyl)piperidin-1-yl]-5-(2,3-dichlorophenyl)-pyrimidine-4-carboxamide]	7700 nM	260 nM	1170 nM	
Cc1nc(N(C)C2CCC(N)CC2)nc(C(N)=O)c1-c1cccc(Cl)c1Cl (centres unmarked) [Compound 32, 2-[(4-Amino-cyclohexyl)-methyl-amino]-5-(2,3-dichlorophenyl)-6-methyl-pyrimidine-4-carboxylic acid amide]	3610 nM	200 nM	736 nM	
NC(=O)c1nc(N2CCCC(N)CC2)nc(N)c1-c1cccc(Cl)c1Cl (centres unmarked) [Compound 49, 6-amino-2-(4-aminoazepan-1-yl)-5-(2,3-dichlorophenyl)-pyrimidine-4-carboxamide]	2540 nM	120 nM	683 nM	
Cc1nc(N2CCC(C)(N)CC2)nc(C(N)=O)c1-c1ccnc(Cl)c1Cl [Compound 81, 2-(4-Amino-4-methyl-piperidin-1-yl)-5-(2,3-dichloro-pyridin-4-yl)-6-methyl-pyrimidine-4-carboxylic acid amide]	11300 nM	720 nM	1720 nM	
Cc1nc(N2CCC3(CC2)CO[C@@H](C)[C@H]3N)nc(C(N)=O)c1-c1cccc(Cl)c1Cl [Compound 85, 2-[(3S,4S)-4-amino-3-methyl-2-oxa-8-azaspiro[4.5]decan-8-yl]-5-(2,3-dichlorophenyl)-6-methylpyrimidine-4-carboxamide]	1240 nM	48 nM	407 nM	
CN(c1nc(N)c(-c2cccc(Cl)c2Cl)c(C(N)=O)n1)[C@H]1CC[C@H](N)CC1 [Compound 112, 6-Amino-2-[(4-amino-cyclohexyl)-methyl-amino]-5-(2,3-dichloro-phenyl)-pyrimidine-4-carboxylic acid amide]	596 nM	66 nM	670 nM	
NC(=O)c1nc(N2CCC3(CC2)Oc2ccccc2[C@H]3N)nc(N)c1-c1cccc(Cl)c1Cl [Compound 123, 6-amino-2-((R)-3-amino-3H-spiro[benzofuran-2,4′-piperidin]-1′-yl)-5-(2,3-dichlorophenyl)pyrimidine-4-carboxamide di-hydrochloride]	58 nM	15 nM		Split between hErg and cell activity Ki(patch Clamp)/IC50 (KYSE) [1]: >100
C[C@@H]1OCC2(CCN(c3nc(N)c(-c4cccc(Cl)c4Cl)c(C(N)=O)n3)CC2)[C@@H]1N [Compound No. 5, 6-amino-2-[(3S,4S)-4-amino-3-methyl-2-oxa-8-azaspiro[4.5]decan-8-yl]-5-(2,3-dichlorophenyl)pyrimidine-4-carboxamide]	1090 nM	72 nM	1010 nM	Split between hErg and cell activity Ki(patch Clamp)/IC50 (KYSE) [1]: >10

Continued by falling IC50 [3], values first:

IC50 ([2]; Homo sapiens, KYSE-520, 2 h)	IC50 [3]	IC50 ([5]; Homo sapiens, MDA-MB-468, 2 h)	Structure (SMILES)	further results
6440 nM	1100 nM	1500 nM	CNC(=O)c1nc(N2CCC(C)(N)CC2)nc(N)c1-c1cccc(Cl)c1Cl [Compound 9, 6-Amino-2-(4-amino-4-methyl-piperidin-1-yl)-5-(2,3-dichlorophenyl)-pyrimidine-4-carboxylic Acid Methylamide]	
10200 nM	590 nM	1830 nM	NCC1CN(c2nc(N)c(-c3cccc(Cl)c3Cl)c(C(N)=O)n2)CC12CCC2 (centres unmarked) [Compound 11, 6-amino-2-[8-(aminomethyl)-6-azaspiro[3.4]octan-6-yl]-5-(2,3-dichlorophenyl)pyrimidine-4-carboxamide]	
2990 nM	310 nM	908 nM	CC1(CN)CCN(c2nc(N)c(-c3cccc(Cl)c3Cl)c(C(N)=O)n2)CC1 [Compound 41, 6-amino-2-[4-(aminomethyl)-4-methylpiperidin-1-yl]-5-(2,3-dichlorophenyl)pyrimidine-4-carboxamide]	
7650 nM	270 nM	2350 nM	NCC12CCCCC1CN(c1nc(N)c(-c3cccc(Cl)c3Cl)c(C(N)=O)n1)C2 (centres unmarked) [Compound 24, 2-[3a-(aminomethyl)-octahydro-1H-isoindol-2-yl]-6-amino-5-(2,3-dichlorophenyl)pyrimidine-4-carboxamide]	
1300 nM	200 nM	652 nM	CCCC1(N)CCN(c2nc(N)c(-c3cccc(Cl)c3Cl)c(C(N)=O)n2)CC1 [Compound 53, 6-amino-2-(4-amino-4-propylpiperidin-1-yl)-5-(2,3-dichloro-phenyl)pyrimidine-4-carboxamide]	
2100 nM	170 nM	646 nM	Cc1nc(N2CCCC(C)(N)CC2)nc(C(N)=O)c1-c1cccc(Cl)c1Cl (centres unmarked) [Compound 45, 2-(4-Amino-4-methyl-azepan-1-yl)-5-(2,3-dichloro-phenyl)-6-methyl-pyrimidine-4-carboxylic acid amide]	
	160 nM		CC1(N)CCN(c2nc(N)c(-c3cccc(Cl)c3Cl)c(C(N)=O)n2)CC1 [Compound No. 3, 6-Amino-2-(4-amino-4-methyl-piperidin-1-yl)-5-(2,3-dichlorophenyl)-pyrimidine-4-carboxylic Acid Amide]	IC50 [2]: 754 nM; Split between hErg and cell activity Ki(patch Clamp)/IC50 (KYSE) [1]: >14; IC50 [5]: 346 nM
8450 nM	150 nM	492 nM	CC1(N)CCN(c2nc(N)c(-c3cccc(Cl)c3Cl)c(C(=O)NO)n2)CC1 [Compound 20, 6-Amino-2-(4-amino-4-methyl-piperidin-1-yl)-5-(2,3-dichlorophenyl)-pyrimidine-4-carboxylic Acid Hydroxyamide]	
2400 nM	104 nM		Cc1nc(N2CCC(C)(N)CC2)nc(C(N)=O)c1-c1cccc(Cl)c1Cl [Compound 18, 2-(4-Amino-4-methyl-piperidin-1-yl)-5-(2,3-dichloro-phenyl)-6-methyl-pyrimidine-4-carboxylic Acid Amide]	IC50 [5]: 231 nM
1470 nM	82 nM	342 nM	CC1(N)CCN(c2nc(N)c(-c3cccc(Cl)c3Cl)c(C(N)=O)n2)CC1 (single isomer, unassigned) [Compound 27, (4P)-6-Amino-2-(4-amino-4-methyl-piperidin-1-yl)-5-(2,3-dichloro-phenyl)-pyrimidine-4-carboxylic Acid Amide]	clearance [4]: 37.3 mL/min/kg; Vd [4]: 8.7 L/kg; Clearance as compared to SHP-099 (in words) [4]: lower clearance; Exposure as compared to SHP-099 (in words) [4]: higher exposure
16 nM	2 nM		NC(=O)c1nc(N2CCC3(CC2)Cc2scnc2[C@H]3N)nc(N)c1-c1cccc(Cl)c1Cl [Compound 121, 6-amino-2-[(4S)-4-amino-4,6-dihydrospiro[cyclopenta[d][1,3]thiazole-5,4′-piperidin]-1′-yl]-5-(2,3-dichlorophenyl)pyrimidine-4-carboxamide]	Split between hErg and cell activity Ki(patch Clamp)/IC50 (KYSE) [1]: >600

From US11033547B2, “Carboxamide-pyrimidine derivatives as SHP2 antagonists” (Merck Patent GmbH, priority 2019, dated 2021)
